We go through 4 molecules from patent US20160040240A1, “CACNA1C ALLELE AND TREATMENT OF MOOD DISORDERS” (THE UNIVERSITY OF CHICAGO, priority 2014, published 2016).

Data set [1] concerns patient with TS Type 2. As to the kind of experiment: Case report: treatment of a patient with Timothy Syndrome type 2 and bipolar disorder. In kind it is in vivo, human. The text has this:
The patient is a person with TS Type 2 (see below) diagnosed in childhood. The patient was referred for research evaluation after diagnosis of BD by one of us (FO). This was confirmed by interview with the patient and their parent, using the Diagnostic Interview for Genetic Studies (DIGS), version 3.0.
Ten months after starting the medication, they were referred to a neurologist, who found depression and prescribed citalopram.
They were restarted on their antidepressant and has been stable for the three years of observation since then. We note that this is not a typical course of BD, and that further observation will be needed to fully define their course.

The conditions of data set [2]: clinical use; cited from earlier work.
The conditions of data set [3]: verapamil: particularly in males; cited from earlier work.
For data set [4], the system named is neuronal induced pluripotent stem cells (iPSCs) derived from TS patients. As to conditions: TS patient iPSC-derived neuronal cells; cited from earlier work.
Data set [5] has as its system L-type channel of the Cav1.2 protein. As to conditions: cited from earlier work.
The mark [6] stands for this setting: verapamil at 250 mg/d, TS patient.

With `[Li]` [Lithium], in data set [1] (given for mood stabilization, complaints of increased lethargy and irritability), the tolerability entry is given as “not well tolerated”.

On to `COC(=O)C1=C(C)NC(C)=C(C(=O)OCCN(C)Cc2ccccc2)C1c1cccc([N+](=O)[O-])c1` (stereo not drawn) [Nicardipine], for which, in data set [2], the common side effects entry is “headache, peripheral edema, dizziness, flushing, asthenia, angina, hypotension, nausea/vomiting, tachycardia, and palpitations”. For the same molecule, the “penetration into the brain / crossing of the blood-brain barrier” value in data set [3] is reported as “satisfactorily crosses”.

`CC[C@H](CO)Nc1nc(NCc2ccccc2)c2ncn(C(C)C)c2n1` [roscovitine]: in data set [4], the “reduction in the proportion of TH-positive neurons” value is 68% and the “reversal of excess expression of TH” value is reported as “succeeds in reversing”. For the same molecule, in data set [5], the “inactivation of the L-type channel” value is reported as “enhanced (normalized)”.

On to `COc1ccc(CCN(C)CCCC(C#N)(c2ccc(OC)c(OC)c2)C(C)C)cc1OC` (stereo not drawn) [verapamil], for which, in data set [1] (setting [6]), the QT interval result is “no change”, the “episodes of atrial fibrillation” value is recorded as “continued to have some episodes” and the “number of ventricular fibrillation episodes” value is reported as “marked decrease”.
